Source: patent US4657897A, “N^6 -substituted adenosines for treating pain” (Warner-Lambert Company, priority 1985, dated 1987)

Experiments:
[1] = Mouse Activity and Screen Test (MAST), inhibition of locomotion (LI); assay type: in vivo, mouse (Swiss-Webster, male); details: one hour data
Description: (§1) Treatments are administered intraperitoneally one hour prior to testing. […] Compounds are dissolved or suspended in 0.2% Methocel. Control animals are injected with Methocel.
Immediately following the screen test, the final phase of testing is initiated by placing each group of three mice in one actophotometer (Life Sciences, 22, 1067-1076, 1978). The actophotometer consists of a cylindrical chamber whose center is occupied by another cylinder which contains the illumination for six photocells located on the perimeter of the chamber. Six light-beam interruptions equal one count. Locomotor activity is recorded by computer at ten minute intervals for 60 minutes.
(§2) The compounds are identified in the Examples.

[2] = Mouse Activity and Screen Test (MAST), screen test failure (ST); assay type: in vivo, mouse (Swiss-Webster, male); details: Mus musculus, ip, 1 h, read-out: MAST ST LAD
Description: as §1, §2

[3] = Antihypertensive evaluation (AHP3), aortic blood pressure and heart rate in conscious rats; assay type: in vivo, rat
Description: This test procedure is described in the following paragraphs.
The continuous monitoring of pulsatile blood pressure (BP) from unrestrained conscious rats surgically equipped witth polyethylene cannulas was accomplished by means of a computer assisted data capture scheme (CADCS). The basic elements of the methodology are the cannulation procedure and the CADCS.
Rats were anesthetized with Telazol (1:1 tiletamine HCl and zolazepam HCl); 20-40 mg/kg IM and the descending aorta exposed via a midline incision. Cannulas fabricated from polyethylene tubing were inserted into the aorta via an undersized puncture hole below the renal arteries. The puncture hole was made by a 23 G disposable needle with a section of the aorta clamped off above and below the puncture site. The cannulas, consisting of a PE100 (0.86 mm ID) body and a PE50 (0.58 mm ID) tip, were attached to a trocar, inserted through the psoas muscle, and passed subcutaneously along the midline of the back and externalized between the ears. The cannulas were anchored to the psoas muscle and between the scalulae (3-0 green braided suture). The midline incision was closed in two steps (muscle first, skin second) using continuous over-and over sutures (4-0 chronic). Each rat was then given penicillin 30,000 units subcutaneously (Penicillin G Procaine Sterile Suspension).
The rats were fitted with a harness-spring-swivel assembly designed to protect the cannula and to provide the rat relative freedom of movement. The harnesses were fabricated from nylon hook and loop tape cemented to a metal plate to which spring wires (18-8 stainless steel), were attached to brass swivels. Each polyethylene cannula was channeled through a spring and connected through a swivel to a pressure transducer (Model P23Gb; Statham Instruments; Hato Rey, Puerto Rico) and an infusion pump (Sage model 234-7; Orion Research, Cambridge, MA) by means of PE100 tubing. While on test, each rat received a continuous slow infusion of heparinized saline solution (approximately […] or 40 units of heparin per 24 hour period) to prevent clot formation. Additional "flushes" of the cannula with heparinized saline were carried out when the aortic pulse pressure (systolic minus diastolic) was less than 25 mm Hg.
The pulsatile blood pressure and heart rate of each of 32 rats was monitored every minute by means of two in-laboratory microcomputers communicating directly with a data concentrator computer. The data were first stored on the data concentrator disk and then transferred to a magnetic tape for analysis and report generation by the main research computer. The overall scheme involved modulating the primary signal from the pressure transducer, generating the primary data set of the one-minute values for systolic, diastolic, and mean blood pressures and heart rate by the in-lab microcomputer and the storage, analysis, and report generation by the main reserach computer.
The transducers were connected to analog signal conditioning modules. The modules provided a regulated excitation voltage for the transducers, amplification as required to interface the microprocessors and an active low pass filter to compensate for the pressure wave form distortion produced by the flexible, fluid filled, narrow cannula. The distortion was 22-26 Hz and this provided a reliable estimate of both systolic and diastolic blood pressure.
The microcomputers (one for each of two groups of 16 rats) were connected to the input components through the module interface units, an analog-to-digital converter for the pressure wave form signal and the digital inputs for the dose and event marker switches. The microcomputer controlled the sequential acquisition of data from the modular interface units through an internal synchronous time-of-day clock/time base generator. Utilizing the time base generator as a reference, the blood pressure values and the marker switch status for each of the 32 stations were sampled every ten msec. […]

[4] = system: rat heart; experiment: Coronary blood flow (PCS2A), isolated perfused rat heart; set-up: species or system rat (male); details: read-out: effect on heart rate (HR)
Description: Male rats (400-600 gms) are pretreated with Na heparin 2000 units and anesthetized with Na pentobarbital (50 mg/kg) administered intraperitoneally. Once anesthetized, the rat heart is rapidly excised, the ascending aorta fitted to the aortic perfusion cannula, and secured with a ligature. The coronary arteries are perfused initially at a rate of about 15 ml/min for two to three minutes, afterwhich they are perfused at constant pressure of 70 mm Hg and temperature of 37° C. The electrocardiogram (ECG) is recorded using two platinum electrodes positioned at the base and apex of the left ventricle. A second heart is excised, cannulated, and perfused by the same method outlined above. Both hearts are tested in parallel. The standard physiological salt solution (PSS) is a modified Krebs-Hanseleit bicarbonate buffer of the following composition in mM concentration: NaCl, 127; NaHCO3, 25; dextrose, 5.5; Na Pyruvate, 2.0; KCl, 4.7; MgSO4, 1.1; KH 2PO4, 1.2; CaCl2.2H2 O, 2.5; CaNa2 EDTA, 0.05.
A 30-minute stabilization period is observed before starting the test protocol.
The microprocessor control system is a servo mechanism which permits coronary perfusion pressure (CPP) and drug concentration to be maintained constant independent of changes in coronary flow. The level at which CPP and drug concentration are maintained can be changed by commands communicated through the microprocessor keyboard. Dose-response curves are carried out by perfusing concentrated drug solution (DC) at rates proportional to total coronary flow (CFT). Drug concentrations are increased by proportionate increases in the rate of DC infusion over CFT via the microprocessor keyboard. The proportional flow rates for DC:CFT is about 0.0002:1 at the low end and 0.02:1 at the high end of the dose-response curve. Dose-response curves encompassing at least two log doses are carried out by preparing two DCs with a concentration difference of 1:100. Following the first dose range of two log doses, the DC are switched, proportional pumping rate adjusted, and the dose-responsecurve continued for another two log doses. The standard dose-response curve is carried out in one-half log dose increments starting at a subthreshold dose and ending at a dose which produces near maximal response in activity. Standard reference compounds are tested over the range of 10^-9 to 10^-6 M.
Measurements are for heart rate (HR) and coronary flow (CF). Units are: HR, beats/minute (bpm) and CF, milliliters/minute (ml/min). HR is calculated from the ECG strip chart recording and CF is calculated by recording analog outputs from pumps 1 and 2. Outputs from pump #1=CFT and the output from pump #2=CF for heart B (CFB). CF for heart A (CFA) is calculated (CFT -CFB =CFA).

OC[C@H]1O[C@@H](n2cnc3c(NCC(c4ccccc4)c4ccccc4)ncnc32)[C@H](O)[C@@H]1O [Example 1, N^6-(2,2-Diphenylethyl)adenosine]
Inhibition of mouse locomotor activity ([1]; 10 mg/kg intraperitoneal): 92% | Inhibition of mouse locomotor activity ([1]; 30 mg/kg intraperitoneal): 93% | Inhibition of mouse locomotor activity ([1]; 100 mg/kg intraperitoneal): 94% | minimal effective dose [2]: > 100 mg/kg | change in MAP (decrease) ([3]; 1 mg/kg): 16% | change in heart rate (HR increase) ([3]; 1 mg/kg): < 20% | change in MAP (decrease) ([3]; 3 mg/kg): 20% | change in heart rate (HR increase) ([3]; 3 mg/kg): < 20% | change in MAP (decrease) ([3]; 10 mg/kg): 20% | change in heart rate (HR increase) ([3]; 10 mg/kg): < 20% | change in MAP (decrease) ([3]; 30 mg/kg): 35% | change in heart rate (HR increase) ([3]; 30 mg/kg): < 20% | activation at 0.001 µM [4]: 1% | activation at 0.003 µM [4]: 3% | activation at 0.01 µM [4]: -1% | activation at 0.1 µM [4]: -13% | activation at 1 µM [4]: -47%
